Data: patent publication EP3858438A1, “3,4-DIHYDRO-2H-SPIRO[ISOQUINOLINE-1,4'-PIPERIDIN]AMIDE DERIVATIVES HAVING MULTIMODAL ACTIVITY AGAINST PAIN” (ESTEVE PHARMACEUTICALS, S.A., priority 2020, dated 2021)
Structures can show the parent of a compound that is named as a salt.

How the values were obtained:
human µ-opioid receptor = biological target: T1, human µ-opioid receptor (Homo sapiens, UniProt P35372); assay: Binding assay to human µ-opioid receptor ([3H]-DAMGO, transfected CHO-K1 cell membranes); conditions: binding expressed as Ki, [3H]-DAMGO 1 nM
T1 construct: expressed in transfected cells; host or cells: CHO-K1
Description: Binding assay to human µ-opioid receptor
Transfected CHO-K1 cell membranes (20 µg) were incubated with [^3H]-DAMGO (1 nM) in assay buffer containing Tris-HCl 50 mM, MgCl2 5 mM at pH 7.4.
NBS (non-specific binding) was measured by adding 10 µM naloxone. The binding of the test compound was measured at either one concentration (% inhibition at 1 or 10 µM) or five different concentrations to determine affinity values (Ki). Plates were incubated at 27 °C for 60 min. After the incubation period, the reaction mixture was then transferred to MultiScreen HTS, FC plates (Millipore), filtered and plates were washed 3 times with ice-cold 10 mM Tris-HCl (pH 7.4).
Filters were dried and counted at approximately 40% efficiency in a MicroBeta scintillation counter (Perkin-Elmer) using EcoScint liquid scintillation cocktail.

[1] = biological target: human α2δ-1 subunit of Cav2.2 calcium channel (Homo sapiens, UniProt P54289); assay: Binding assay to human α2δ-1 subunit of Cav2.2 calcium channel ([3H]-Gabapentin); conditions: binding expressed as Ki; [3H]-Gabapentin 15 nM, human α2δ-1 enriched membranes
Description: Binding assay to human α2δ-1 subunit of Cav2.2 calcium channel.
Human α2δ-1 enriched membranes (2.5 µg) were incubated with 15 nM of radiolabeled [3H]-Gabapentin in assay buffer containing Hepes-KOH 10 mM, pH 7.4.
NSB (non specific binding) was measured by adding 10 µM pregabalin. The binding of the test compound was measured at either one concentration (% inhibition at 1 or 10 µM) or five different concentrations to determine affinity values (Ki). After 60 min incubation at 27 °C, binding reaction was terminated by filtering through Multiscreen GF/C (Millipore) presoaked in 0.5 % polyethyleneimine in Vacuum Manifold Station, followed by 3 washes with ice-cold filtration buffer containing 50 mM Tris-HCl, pH 7.4.
Filter plates were dried at 60 °C for 1 h and 30 µl of scintillation cocktail were added to each well before radioactivity reading.
Readings were performed in a Trilux 1450 Microbeta radioactive counter (Perkin Elmer).

T1 sequence (P35372 whole entry): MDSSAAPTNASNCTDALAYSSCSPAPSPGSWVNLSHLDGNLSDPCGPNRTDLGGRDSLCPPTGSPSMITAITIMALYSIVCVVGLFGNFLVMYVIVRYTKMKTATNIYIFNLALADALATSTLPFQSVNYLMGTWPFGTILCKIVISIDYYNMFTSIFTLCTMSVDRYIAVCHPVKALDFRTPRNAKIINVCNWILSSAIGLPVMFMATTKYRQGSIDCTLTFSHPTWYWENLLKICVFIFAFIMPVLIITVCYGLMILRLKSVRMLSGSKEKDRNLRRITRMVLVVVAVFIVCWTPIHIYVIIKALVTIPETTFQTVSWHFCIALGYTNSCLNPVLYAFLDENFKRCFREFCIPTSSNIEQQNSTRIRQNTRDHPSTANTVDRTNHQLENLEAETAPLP
human α2δ-1 subunit of Cav2.2 calcium channel, sequence (P54289 25-1103): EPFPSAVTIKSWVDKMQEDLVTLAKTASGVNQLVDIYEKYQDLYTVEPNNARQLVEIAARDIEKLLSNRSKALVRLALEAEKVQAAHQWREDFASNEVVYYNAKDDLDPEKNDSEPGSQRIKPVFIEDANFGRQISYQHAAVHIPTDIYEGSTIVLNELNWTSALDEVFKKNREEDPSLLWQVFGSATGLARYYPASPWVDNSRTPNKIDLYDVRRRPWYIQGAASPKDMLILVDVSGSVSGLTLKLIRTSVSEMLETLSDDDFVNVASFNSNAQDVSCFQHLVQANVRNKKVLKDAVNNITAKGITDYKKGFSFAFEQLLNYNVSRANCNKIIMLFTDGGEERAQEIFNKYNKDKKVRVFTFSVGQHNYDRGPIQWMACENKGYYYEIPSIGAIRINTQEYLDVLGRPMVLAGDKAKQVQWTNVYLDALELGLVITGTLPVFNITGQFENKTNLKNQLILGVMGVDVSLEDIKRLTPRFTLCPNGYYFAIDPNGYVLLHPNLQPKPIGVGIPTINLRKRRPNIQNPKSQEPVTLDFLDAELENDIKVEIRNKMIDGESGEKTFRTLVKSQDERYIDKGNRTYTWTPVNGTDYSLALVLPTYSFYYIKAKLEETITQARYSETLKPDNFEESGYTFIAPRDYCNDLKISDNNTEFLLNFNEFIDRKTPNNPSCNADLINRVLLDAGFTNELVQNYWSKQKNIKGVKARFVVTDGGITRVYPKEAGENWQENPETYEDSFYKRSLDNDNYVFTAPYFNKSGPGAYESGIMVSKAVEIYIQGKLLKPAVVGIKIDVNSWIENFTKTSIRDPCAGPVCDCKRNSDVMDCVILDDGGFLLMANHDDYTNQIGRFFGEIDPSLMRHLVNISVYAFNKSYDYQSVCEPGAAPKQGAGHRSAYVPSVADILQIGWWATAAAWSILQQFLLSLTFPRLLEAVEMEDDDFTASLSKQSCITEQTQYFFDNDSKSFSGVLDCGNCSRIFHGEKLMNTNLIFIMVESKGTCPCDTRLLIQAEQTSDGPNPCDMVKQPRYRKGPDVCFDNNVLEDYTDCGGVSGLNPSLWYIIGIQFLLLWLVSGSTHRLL

Structure (SMILES) | Ki (human µ-opioid receptor) [µM] | Ki [1] [µM]
CC[C@@H](c1ccccc1)[C@@H](CN)C(=O)N1CCC2(CC1)c1ccccc1CCN2C [Example 1] | < 0.1 | < 0.5
CNC[C@@H](C(=O)N1CCC2(CC1)c1ccccc1CCN2C)[C@@H](C)c1ccccc1 [Example 2, (2S,3R)-1-(2-methyl-3,4-dihydro-2H-spiro[isoquinoline-1,4'-piperidin]-1'-yl)-2-((methylamino)methyl)-3-phenylbutan-1-one] | 0.1 to 0.5 | < 0.5
CC[C@@H](c1cccc(Cl)c1)[C@@H](CNC)C(=O)N1CCC2(CC1)c1ccccc1CCN2C [Example 3, (2S,3R)-3-(3-chlorophenyl)-1-(2-methyl-3,4-dihydro-2H-spiro[isoquinoline-1,4'-piperidin]-1'-yl)-2-((methylamino)methyl)pentan-1-one dihydrochloride] | 0.1 to 0.5 | < 0.5
CC[C@@H](c1cccc(Cl)c1)[C@@H](CN)C(=O)N1CCC2(CC1)c1ccccc1CCN2C [Example 4, (2S,3R)-2-(aminomethyl)-3-(3-chlorophenyl)-1-(2-methyl-3,4-dihydro-2H-spiro[isoquinoline-1,4'-piperidin]-1'-yl)pentan-1-one] | < 0.1 | < 0.5
